Melting point data for 66 molecules are collected here from a melting point compilation (Tetko et al.; mined from patent text by program, amines drawn as free bases though some values may be those of a salt).

Molecules are shown by their SMILES. Where only a bound is given, the exact number is not on record here.

By melting point is commonly meant the temperature, or range, at which the solid turns liquid. In the case of `CCCn1c(=O)c2nc(-c3ccc(/C=C/C(=O)OCC)cc3)[nH]c2n(CCC)c1=O`, the melting point was above 300 °C.

In turn, `O=c1c(-c2ccccc2)c[nH]nc1-c1ccccc1` came in with a melting point of 328 to 332 °C.

Molecule `CCOC=C(C(C)=O)C(=O)NCc1ccc(Cl)cc1` yielded a melting point of 103 to 105 °C.

`CN(C)c1ccc([N+](=O)[O-])c(C#N)c1` displayed a melting point of 174 to 175 °C.

As to `COc1ccc(-c2cc3ccccc3[nH]2)cc1N`, the melting point lay within 208 to 209 °C.

On to `COc1cc(Cl)cn2cc(-c3ccc(Cl)cc3)nc12`, for which the melting point was in the range of 150 to 151 °C.

The molecule `CSC(=N)Nc1c(C)cccc1Cl` came in with a melting point of 183 to 184 °C.

`O=C1c2ccccc2-c2ccccc2C1(O)C(F)(F)F` (stereo unspecified) returned a melting point of 148 to 151 °C.

Molecule `C#CC[C@H]1C(=O)O[C@@H]1C[C@@H](CCCCCCCCCCCCCCCCC)O[Si](C)(C)C(C)(C)C` registered a melting point of 62 to 63 °C.

Regarding `CS(=O)(=O)c1ccc(-c2cc(=O)n(CC(=O)c3ccccc3)nc2-c2ccc(F)cc2)cc1`, the melting point was 178 to 180 °C.

As for `COc1cc(N)c(N)cc1C(N)=O`, the melting point fell in the range of 181 to 183 °C.

The molecule `COc1ccc2c(c1)C(C)(C)NC2=O` yielded a melting point of 146 to 147 °C.

In turn, `COC(=O)COc1ccc2cc(-c3cnc(Cc4ccc5ccccc5c4)o3)ccc2c1` had a melting point of 147 to 149 °C.

Molecule `Cc1cc(Cl)ccc1OCC(=O)N1Cc2cccn2Cc2ccccc21` had a melting point of 166 to 167 °C.

For the molecule `CCCSc1ncnc2c1ncn2C1CC(F)C(CO)O1` (stereo unspecified), the melting point was in the range of 85 to 86 °C.

As for `Fc1ccc(N2CCN(Cc3cn4cc(C(F)(F)F)cc(Cl)c4n3)CC2)cc1`, the melting point fell in the range of 91 to 97 °C.

In turn, `Cc1cccc2c1C(=O)C(CO)(CO)CS2` showed a melting point of 138 to 142 °C.

The molecule `CCc1cc(Br)cc(NC(=O)C=NO)c1` yielded a melting point of 176 to 178 °C.

`Cc1cc(C)n(C)c1C(=O)C(C#N)C(=O)Nc1ccccc1` (stereo unspecified): the melting point was 106 to 107 °C.

`CCCCCCCCCCCCC(O)CNCCCCCCNCC(O)CCCCCCCCCCCC` (stereo unspecified) returned a melting point of 118 to 121 °C.

For the molecule `COc1cc(O)c(C(=O)C=Cc2sccc2C)c(OC)c1`, the melting point turned out to be 124 °C.

Turning to `Nc1nc(N)nc(-c2ccc(C(O)c3ccccc3)cc2)n1` (racemic), the melting point fell in the range of 214 to 216 °C.

The molecule `CCOC(=O)COc1cccc2c1CCc1sc(SC(c3ccccc3)c3ccccc3)nc1-2` yielded a melting point of 124 to 126 °C.

In the case of `COc1ccc(-n2cnc(SC)n2)cc1`, the melting point worked out at 54.9 °C.

Molecule `CCn1cc(C(c2ccc(Cl)cc2Cl)n2cncn2)c2cc(Br)ccc21` (stereo unspecified) displayed a melting point of 124 to 126 °C.

Take `Cc1cc(Cl)cc(C)c1NC(=O)Oc1ccccc1`: the melting point fell in the range of 158 to 160 °C.

Take `CCOCCOCCOc1ccc(C(=O)CN(Cc2ccccc2)Cc2ccccc2)cc1C(N)=O`: the melting point fell in the range of 91.5 to 92.5 °C.

`COc1ccc(CCNC=C2C(=O)Nc3cc(OC)c(OC)cc32)cc1OC`: the melting point was 164 to 166 °C.

`CC1(C)N=C(c2ccccc2F)c2cc(C#N)ccc2NC1=O` displayed a melting point of 206 °C.

As for `COc1ccc(S(=O)(=O)C(CCCCc2ccccc2)(CC(=O)O)c2ccccc2)cc1` (stereo unspecified), the melting point lay in the range of 75 to 78 °C.

Take `CC(=O)OC(C(=O)O)(C(=O)N(C(C)=O)C(C)=O)c1ccc(Cl)c(C)c1` (stereo unspecified): the melting point lay in the range of 169 to 171 °C.

Molecule `COc1cc2cc3c(nc2cc1OC)CCc1ccc(N)cc1-3` displayed a melting point of 185 °C.

Turning to `COc1nccc(-c2c(-c3ccc(F)cc3)ncn2C2CCC(=O)CC2)n1`, the melting point was 212 to 214 °C.

As to `C=CCON=C(C(=O)O)c1nc(NC=O)sc1Cl`, the melting point was 166 to 167 °C.

For `CCN(CC)C(=O)OCC1CN(C(=S)c2cc(OC)c(OC)c(OC)c2)CCN1C(=O)c1cc(OC)c(OC)c(OC)c1` (stereo unspecified), the melting point amounted to 106 °C.

The molecule `N#Cc1ccc(C(=O)N2CCC[C@H]2C(=O)O)cc1` yielded a melting point of 80 to 85 °C.

For `O=C(F)OC12CC3CC(CC(C3)C1)C2`, the melting point fell in the range of 32 to 33 °C.

With `CCOC(=O)C=C(C)NC(=O)Nc1cc(C(=O)OC(C)C)c(Cl)cc1F`, the melting point lay within 147 to 150 °C.

As to `CCC12CCC3=C(CCc4cc(O)ccc43)C1CCC2=O` (stereo unspecified), the melting point lay in the range of 235 to 239 °C.

The molecule `Nc1ncnc2c1ncn2C=CC=O` returned a melting point of 258 to 260 °C.

Molecule `COC(=O)c1cccc(OC)c1I` registered a melting point of 58 to 61 °C.

On to `O=C(c1ccc(Oc2ccc(Oc3ccc(C(=O)C(Cl)(Cl)Cl)cc3)cc2)cc1)C(Cl)(Cl)Cl`, for which the melting point is 215 to 217 °C.

For `COc1ccc(Cl)c(NC(=O)Cc2ccc(Cl)cc2)c1`, the melting point is 149 to 151 °C.

For the molecule `CN(Cc1ccc(NC(=O)C2=Cc3cc(-c4ccc(OCc5ccc(Cl)s5)cc4)ccc3S(=O)(=O)CC2)cc1)C1CCOCC1`, the melting point was 207 to 210 °C.

The molecule `Cc1cc2nncn2nc1-c1cccc(N)c1` came in with a melting point of 182 to 186 °C.

Turning to `CCOCc1c(-c2ccc(OC(F)F)c(OC3CC3)c2)[nH]c2cn[nH]c(=O)c12`, the melting point was in the range of 141 to 143 °C.

The molecule `COc1cc2c(C3=CCNCC3)c[nH]c2cc1Cl` gave a melting point of 222 to 224 °C.

Molecule `COCOc1ccccc1-c1nc(N)c(C#N)c(-c2cccc([N+](=O)[O-])c2)c1C` displayed a melting point of 154 to 155 °C.

`COc1cn(-c2ccc(-n3nccc3OC(F)F)cc2F)nc(-c2ccnn2-c2ccccc2)c1=O` gave a melting point of 177 to 179 °C.

`CCCNC(=O)C(C)=Cc1ccc2[nH]ccc2c1`: the melting point is 92 to 94 °C.

The molecule `CC(=O)c1c(C)nc(N(Cc2ccccc2)Cc2ccccc2)c(N)c1NCCc1ccccc1` displayed a melting point of 152 to 153 °C.

Consider `COC(=O)c1ccc(OCCCBr)cc1NC(=O)C=Cc1ccc(-c2ccccc2)cc1`, for which the melting point fell in the range of 142 to 145 °C.

`COc1ccc(CSc2nnc(-c3ccnc(NC(=O)OC(C)(C)C)c3)o2)cc1F` displayed a melting point of 244 to 245 °C.

`NC(=O)C1CNCCN1CCCC(c1ccc(F)cc1)c1ccc(F)cc1` (stereo unspecified) came in with a melting point of 114 °C.

`N#Cc1ccccc1-c1ccc(CBr)c(Br)c1` came in with a melting point of 152 to 153 °C.

For the molecule `NCCN1CCC(=C2c3ccccc3C=Cc3ccccc32)CC1`, the melting point worked out at 102 °C.

For the molecule `O=C(O)CCCCc1nc2c(F)c(F)cc(F)c2s1`, the melting point fell in the range of 122 to 124 °C.

Regarding `Cc1ccc(-c2cc(C(F)(F)F)n3ncc(C#N)c3n2)cc1`, the melting point was 121 °C.

With `CCOC(=O)c1ccc(OCCCCC2CC3=C(C2)C(=O)C(OC)=C(OC)C3=O)cc1`, the melting point lay within 97 to 99 °C.

In turn, `CCCCCCCCN(O)C(=O)N(C)C` yielded a melting point of 29 to 30 °C.

`NC(=O)c1nnn(Cc2ccc(Sc3ccc(Cl)cc3)c(Cl)c2)c1N` gave a melting point of 202 to 204 °C.

On to `O=C(O)C=C1COc2ccccc2C1=O`, for which the melting point was 134 to 136 °C.

Molecule `Cc1ccnc2c1N=C(Cl)c1cccnc1N2C1CC1` gave a melting point of 196 to 198 °C.

With `COc1ccc(C(=O)Nc2ccc(C3(CNC(=O)C(C)(C)C)CCCC3)cc2)cc1OC`, the melting point was in the range of 165 to 167 °C.

For `O=C1OC(=O)c2c(-c3ccccc3)c3ccccc3c3cccc1c23`, the melting point is 158 to 161 °C.

`NN=c1cc(-c2c[nH]nc2-c2cccc(Cl)c2)cc[nH]1` registered a melting point of 163 to 164 °C.
